Reference: patent publication US9376382B2, “N-substituted isopropyldimethyl azulene sulfonamide derivatives, and preparation method and use thereof” (Sichuan Guokang Pharmaceutical Co., Ltd., priority 2011, dated 2016)

Legend:
[1] = High-temperature test (60° C.), stability study; format: physicochemical; details: open-stored; for Appearance Day 5: Day 5, cell wraps; for Appearance Day 5 / Appearance Day 10: first line given; for Appearance Day 10: Day 10, cell wraps;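 for all read-outs here: samples kept uncovered in dishes at 60 °C for up to 10 days and examined on Day 5 and Day 10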
Description: (§1) The test samples were open-stored in culture dishes at 60° C. for 10 days, and taken and detected on Day 5 and Day 10. • The characteristics, especially colour change were observed. • Melting points were measured by automatic melting point apparatus. • By self-reflection, TLC is used to observe whether the spot numbers were increased after 5 days and 10 days.

[2] = High humidity test (25° C., relative humidity 90% ± 5%), stability study; format: physicochemical; details: RH 90% ± 5%; for Appearance Day 0: Day 0, cell wraps; for Appearance Day 0 / Appearance Day 5 / Appearance Day 10: first line given; for Appearance Day 5: Day 5, cell wraps; for Appearance Day 10: Day 10, cell wraps;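 for all read-outs here: samples kept uncovered in sealed humidity desiccators, appearance judged mainly by colour change, melting point on an automatic apparatus, TLC checked for extra spots versus start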
Description: (§2) The test samples were open-stored in closed constant humidity desiccators under the condition of 25° C. and relative humidity of 90%+5% for 10 days, and taken and detected on Day 5 and Day 10. Meanwhile, each sample was accurately weighed before and after test.
The characteristics, especially colour change was observed.
Melting points were measured by an automatic melting point apparatus.
By self-reflection, TLC is used to observe whether the spot numbers were increased after 5 days and 10 days.

[3] = Intense light irradiation test (4500LX ± 500LX), stability study; format: physicochemical; details: for Appearance Day 0: Day 0, cell wraps; for Appearance Day 0 / Appearance Day 5 / Appearance Day 10: first line given; for Appearance Day 5: Day 5, cell wraps; for Appearance Day 10: Day 10, cell wraps
Description: (§3) The test samples were open-stored in “adjustable light boxes” under the conditions of illumination of 4500LX±500LX for 10 days, and taken and detected on Day 5 and Day 10 with regards to dry items. • The characteristics, especially colour change was observed. • Melting points were measured by an automatic melting point apparatus. • By self-reflection, TLC is used to observe whether the spot numbers were increased after 5 days and 10 days.

[4] = test system: ethanol-induced gastric ulcer; assay: Anhydrous ethanol-induced gastric ulcer in mice; format: in vivo, Kunming mice; design: key to Gastri ulcer score (X ± SD) / Ulcer score (X ± SD) / Gastric ulcer score (X ± SD): summed pathology score: congestion 1, hemorrhage/erosion 1, linear erosion 3; details: for Inhibition rate (%) / Gastri ulcer score (X ± SD): Table 4; for Inhibition rate (%): inhibition rate of ulcer vs model group; for Gastri ulcer score (X ± SD): mice, intragastric once a day for five days, dose equimolar to azulene sulfonate sodium 3.0 mg/kg (Omeprazole 13.4 mg/kg), model group 13.00 ± 1.77; for anti-gastric ulcer effect in words: ethanol-induced gastric ulcer in mice, compared to the model group
Description: Kunming mice, half male and half female, weighing 18-22 g, provided by the West China Animal Center
(1) Azulene sodium sulphonate was added with 0.5% CMC to prepare a suspension with concentration of 0.15 mg/ml.
(2) 20 mg of Omeprazole was added with 0.5% CMC to prepare a suspension with concentration of 0.67 mg/ml.
Kunming mice were randomly grouped according the body weight (one model control group or negative control group, one Omeprazole control group or positive control group, one Azulene sodium sulphonate control group, twelve test drug groups), eight mice for each group, half male and half female.
Administration: Model control group was administrated intragastrically with 0.5% CMC solution at a dose of 0.4 ml/20 g; Omeprazole control group was administrated intragastrically with Omeprazole at a dose of 0.4 ml/20 g, Azulene sodium sulphonate control group and each test drug groups were administrated intragastrically with their respective drug at a dose of 0.4 ml/20 g. The mice in each group were administrated once a day for successive five days. 0.5 hour after final administration, the mice in each group were administrated intragastrically with 0.5 ml of anhydrous ethanol, one hour later the mice were executed and dissected, and their stomaches were taken, washed and scored according to the pathological degree. For local congestion and rubefaction, score was 1; for petechial hemorrhage or erosion, score was respectively 1, for each linear erosion, score was 3. Statistical analysis was performed. Ulcer scores were calculated, significant differences between the groups were compared and the inhibition rates of ulcer were calculated [Inhibition rate of ulcer=(ulcer score of model group−ulcer score of drug administration group)/ulcer score of model group].

[5] = Stability studies (light, humidity, heat), overall comparison; details: summary of high-temperature, high humidity and intense light tests
Description: as §1, §2, §3

| SMILES | Melting point Day 0 [1] | Spot numbers on TLC Day 0 [1] | Melting point Day 5 [1] | Spot numbers on TLC Day 5 [1] | Appearance Day 5 [1] | Melting point Day 10 [1] | Spot numbers on TLC Day 10 [1] | Appearance Day 10 [1] | Melting point Day 0 [2] | Spot numbers on TLC Day 0 [2] | hygroscopic rate (%) Day 0 [2] [%] | Appearance Day 0 [2] | Melting point Day 5 [2] | Spot numbers on TLC Day 5 [2] | hygroscopic rate (%) Day 5 [2] [%] | Appearance Day 5 [2] | Melting point Day 10 [2] | Spot numbers on TLC Day 10 [2] | Appearance Day 10 [2] | Spot numbers on TLC Day 0 [3] | further results |
| --- | --- | --- | --- | --- | --- | --- | --- | --- | --- | --- | --- | --- | --- | --- | --- | --- | --- | --- | --- | --- | --- |
| Cc1cc(S(=O)(=O)Nc2cccc(Br)c2)c2c(C)ccc(C(C)C)cc1-2 [4a, N-(3-bromophenyl)-3,8-dimethyl-5-isopropyl-1-azulene sulfonamide] | 172.5-174.0 °C | 1 | 172.0-173.5 °C | 1 | purple | 172.5-174.0 °C | 1 | purple | 172.5-174.0 °C | 1 | 1.01 | purple | 172.0-174.5 °C | 1 | 1.46 | purple | 172.0-174.5 °C | 1 | purple | 1 | Melting point Day 0 [3]: 172.5-174.0 °C; Appearance Day 0 [3]: purple; Melting point Day 5 [3]: 172.0-175.0 °C; Spot numbers on TLC Day 5 [3]: 1; Appearance Day 5 [3]: purple; Melting point Day 10 [3]: 173.0-174.0 °C; Spot numbers on TLC Day 10 [3]: 1; Appearance Day 10 [3]: purple; Inhibition rate (%) [4]: 51.31%; Gastri ulcer score (X ± SD) [4]: 6.33 ± 4.50; anti-gastric ulcer effect in words [4]: significantly relieve the pathological degree; melting point: 172 to 174 °C; light, humidity and heat stability in words [5]: better light, humidity and heat stability than azulene sulfonate sodium |
| COc1ccc(NS(=O)(=O)c2cc(C)c3cc(C(C)C)ccc(C)c2-3)c(OC)c1 [4b, N-(2,4-dimethoxyphenyl)-3,8-dimethyl-5-isopropyl-1-azulene sulfonamide] | 114.0-115.5 °C | 1 | 114.5-116.0 °C | 1 | purple | 113.5-115.0 °C | 1 | purple | 114.0-115.5 °C | 1 | 0.97 | purple | 114.0-115.5 °C | 1 | 1.24 | purple | 114.0-115.5 °C | 1 | purple | 1 | Appearance Day 0 [3]: purple; Spot numbers on TLC Day 5 [3]: 1; Appearance Day 5 [3]: purple; Spot numbers on TLC Day 10 [3]: 1; Appearance Day 10 [3]: purple; Inhibition rate (%) [4]: 52.77%; Gastri ulcer score (X ± SD) [4]: 6.14 ± 2.85; anti-gastric ulcer effect in words [4]: significantly relieve the pathological degree; melting point: 114 to 116 °C; light, humidity and heat stability in words [5]: better light, humidity and heat stability than azulene sulfonate sodium |
| Cc1cc(S(=O)(=O)Nc2cccc3ccccc23)c2c(C)ccc(C(C)C)cc1-2 [4d, N-(1-naphthyl)-3,8-dimethyl-5-isopropyl-1-azulene sulfonamide] | 140.0-142.5 °C | 1 | 141.5-142.5 °C | 1 | purple | 140.0-142.5 °C | 1 | purple | 140.0-142.5 °C | 1 | 1.23 | purple | 140.0-142.5 °C | 1 | 1.61 | purple | 140.0-142.5 °C | 1 | purple | 1 | Melting point Day 0 [3]: 140.0-142.5 °C; Appearance Day 0 [3]: purple; Melting point Day 5 [3]: 141.5-143.0 °C; Spot numbers on TLC Day 5 [3]: 1; Appearance Day 5 [3]: purple; Melting point Day 10 [3]: 140.0-142.0 °C; Spot numbers on TLC Day 10 [3]: 1; Appearance Day 10 [3]: purple; Inhibition rate (%) [4]: 50.54%; Gastri ulcer score (X ± SD) [4]: 6.43 ± 2.99; anti-gastric ulcer effect in words [4]: significantly relieve the pathological degree; melting point: 140 to 142 °C; light, humidity and heat stability in words [5]: better light, humidity and heat stability than azulene sulfonate sodium |
| Cc1cc(S(=O)(=O)Nc2ccc(Cl)cc2)c2c(C)ccc(C(C)C)cc1-2 [4k, N-(4-chlorophenyl)-3,8-dimethyl-5-isopropyl-1-azulene sulfonamide] | 134.5-135.0 °C | 1 | 134.0-135.5 °C | 1 | purple | 134.0-135.5 °C | 1 | purple | 134.5-135.0 °C | 1 | 1.17 | purple | 134.5-135.5 °C | 1 | 1.87 | purple | 134.5-135.5 °C | 1 | purple | 1 | Melting point Day 0 [3]: 134.5-135.0 °C; Appearance Day 0 [3]: purple; Melting point Day 5 [3]: 134.0-135.5 °C; Spot numbers on TLC Day 5 [3]: 1; Appearance Day 5 [3]: purple; Melting point Day 10 [3]: 134.0-135.5 °C; Spot numbers on TLC Day 10 [3]: 1; Appearance Day 10 [3]: purple; melting point: 134 to 135 °C; light, humidity and heat stability in words [5]: better light, humidity and heat stability than azulene sulfonate sodium |
